Several values for one entry are separate records, joined by “and”; a condition that tells them apart may be missing. Equal values may be shown once.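 Step 1: Grow cells in 96-well plates. Step 2: Expose to compound for 48 hours at 5 concentrations. Step 3: Interpolate endpoints linearly; if unreached, use highest concentration. The concentration for 50% growth inhibition is given as GI50. At the TGI there is no net growth.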
Experiments:
Assay in all cases: NCI-60 cell line screen, 48 h
PC-3 prostate = test system: PC-3 prostate
SF-539 CNS = test system: SF-539 CNS
M14 melanoma = test system: M14 melanoma
SK-MEL-5 melanoma = test system: SK-MEL-5 melanoma
NCI-H226 lung = test system: NCI-H226 lung
SK-MEL-28 melanoma = test system: SK-MEL-28 melanoma
ACHN renal = test system: ACHN renal
OVCAR-4 ovarian = test system: OVCAR-4 ovarian
MDA-MB-231 breast = test system: MDA-MB-231 breast
HS 578T breast = test system: HS 578T breast

SMILES | GI50 (PC-3 prostate) | TGI (PC-3 prostate) | GI50 (SF-539 CNS) | TGI (SF-539 CNS) | GI50 (M14 melanoma) | TGI (M14 melanoma) [µM] | GI50 (SK-MEL-5 melanoma) | TGI (SK-MEL-5 melanoma) | GI50 (NCI-H226 lung) [µM] | TGI (NCI-H226 lung) | GI50 (SK-MEL-28 melanoma) | TGI (SK-MEL-28 melanoma) | GI50 (ACHN renal) | TGI (ACHN renal) [µM] | GI50 (OVCAR-4 ovarian) | TGI (OVCAR-4 ovarian) [µM] | GI50 (MDA-MB-231 breast) | TGI (MDA-MB-231 breast) | GI50 (HS 578T breast) [µM] | TGI (HS 578T breast)
O=C(NCc1ccc(Cn2c(=O)sn(-c3ccccc3)c2=O)cc1)OCc1ccc2cccc(O)c2n1 | 0.826 µM | 2.42 µM | 1.05 µM | 2.3 µM | 0.647 µM | 2.03 | 1.6 µM | 2.97 µM | 1.27 | 2.77 µM | 1.34 µM | 2.64 µM | 0.393 µM | 1.47 | 0.947 µM | 2.28 | 1.19 µM | 2.55 µM | 1.71 | 4.9 µM
O=C1Nc2ccccc2/C1=C1\CCc2cc(O)ccc21 | 12.4 µM | > 25 µM | 9.64 µM | > 25 µM | 7.18 µM | > 25 | 6.62 µM | > 25 µM | 12.4 | > 25 µM | 15.3 µM | > 25 µM | 10.6 µM | > 25 | 7.02 µM | > 25 | 7.22 µM | > 25 µM | 7.12 | > 25 µM
COC(=O)C1=COC(C)C2CN3CCc4c([nH]c5ccccc45)C3CC12 (stereo not given) | 24 µM and > 100 µM | 95.2 µM and > 100 µM | 22.4 µM and > 100 µM | 59.5 µM and > 100 µM | 38.4 µM and > 100 µM | > 100 | 22.6 µM and > 100 µM | 66.4 µM and > 100 µM | – | 29.4 µM and > 100 µM | 16.1 µM and > 100 µM | 41.8 µM and > 100 µM | 32.1 µM and > 100 µM | > 100 | 25.4 µM and > 100 µM | > 100 | 21.2 µM and > 100 µM | 65.3 µM and > 100 µM | – | 65.8 µM and > 100 µM
COc1ccc(C(CC(=O)c2ccc3c(c2)OCO3)c2c(O)c3ccccc3oc2=O)cc1OC (stereo not given) | – | > 100 µM | – | > 100 µM | – | – | – | > 100 µM | – | > 100 µM | – | > 100 µM | – | > 100 | – | > 100 | – | > 100 µM | – | > 100 µM
Nc1ccccc1O.O.O=C(O)C1[O][Sb][O]C1C(=O)O (stereo not given) | 25.8 µM | > 100 µM | 17.9 µM | 37.4 µM | 11.5 µM | 25.9 | 1.77 µM | 3.99 µM | > 100 | > 100 µM | 10.2 µM | 24.6 µM | 16.1 µM | 29.8 | 16 µM | 30.6 | 23.6 µM | > 71.7 µM | 9.07 | 46.2 µM
CCC/C=C/C=C/C1CC(O)C(O)C(=O)C1CO (stereo not given) | – | > 100 µM | – | > 100 µM | – | > 100 | – | > 100 µM | – | > 100 µM | – | > 100 µM | – | > 100 | – | > 100 | – | > 100 µM | – | > 100 µM
O=C(Nc1cc(Nc2ncccc2-c2ncnc3nc[nH]c23)ccc1F)c1cc(C(F)(F)F)cc(C(F)(F)F)c1 | 2.34 µM | 5.19 µM | 1.3 µM | 3.04 µM | 0.33 µM | 1.6 | 1.12 µM | 2.76 µM | 2.74 | > 10 µM | 0.34 µM | 1.68 µM | 1.42 µM | 4.27 | 1.57 µM | 4.34 | 1.04 µM | 2.79 µM | 1.8 | 8.88 µM
CO[C@H]1Nc2c(ccc(C)c2O)C(=O)N2C=C(/C=C/C(N)=O)C[C@@H]12 | – | 0.656 µM | – | 0.0384 µM | – | 0.0406 | – | 0.0308 µM | – | 0.47 µM | – | 0.0829 µM | – | – | – | 0.686 | – | 0.0333 µM | – | 0.0407 µM
N[C@H](CCC(=O)N[C@@H](Cc1c[nH]c2ccccc12)C(=O)O)C(=O)O | > 100 µM | > 100 µM | > 100 µM | > 100 µM | > 100 µM | > 100 | > 100 µM | > 100 µM | > 100 | > 100 µM | > 100 µM | > 100 µM | > 100 µM | > 100 | > 100 µM | > 100 | > 100 µM | > 100 µM | > 100 | > 100 µM
ClCCN(CCCl)c1ccc(CNc2ccccc2)cc1 | 11.6 µM | > 100 µM | 3.21 µM | 24.2 µM | 8.27 µM | > 100 | 11.3 µM | 34.4 µM | 10.3 | 28.2 µM | 36.8 µM | > 100 µM | 2.76 µM | > 100 | 16.2 µM | > 100 | 28.5 µM | > 100 µM | 12.4 | 83.2 µM
O=C(c1ccco1)c1c(C(F)(F)F)n([O-])c2ccc(C(F)(F)F)cc2[n+]1=O | 0.132 µM | 0.262 µM | 0.475 µM | 0.91 µM | 1.04 µM | 2.48 | 0.508 µM | 1.09 µM | 0.657 | 1.55 µM | 0.717 µM | 1.91 µM | 0.168 µM | 0.362 | – | – | 0.298 µM | 0.768 µM | 0.654 | 2.74 µM
Cc1cc(N/N=C/c2ccccn2)nc2ccccc12 | 0.486 µM | 19.2 µM | 0.289 µM | 1.04 µM | 0.413 µM | 5.62 | 0.302 µM | 6.24 µM | 0.286 | 4.93 µM | 0.895 µM | 16.8 µM | 0.347 µM | 11.1 | 0.166 µM | 7.2 | 0.469 µM | 14.3 µM | 8.2 | 34.5 µM
Cc1ccc(OCCOCCOCCOCCOc2ccc(C)n(O)c2=S)c(=S)n1O | 0.0155 µM | > 100 µM | 0.317 µM | > 100 µM | – | – | 0.0438 µM | 11.3 µM | < 0.0291 | 12.7 µM | 0.356 µM | > 100 µM | < 0.0147 µM | > 100 | < 0.0105 µM | 55 | 0.114 µM | > 100 µM | 3.58 | > 100 µM
COC(=O)c1cc2c(o1)-c1nccc3c1c(nc1ccccc13)C2=O | 3.41 µM | 29.6 µM | 2.69 µM | 9.7 µM | 2.31 µM | 10.2 | 1.2 µM | 4.69 µM | 8.08 | 25.4 µM | 11.5 µM | 25.4 µM | 2.27 µM | 14.7 | – | – | 5.1 µM | 39.5 µM | 14.2 | 37.1 µM

From PubChem BioAssay (NCI)
